# Test results reported in patent publication US20240180937A1, “CYTOKINE PRODUCTION SUPPRESSING COMPOSITION CONTAINING D-ALLOSE AS ACTIVE COMPONENT, AND METHOD OF TREATING OR PREVENTING DISEASE ASSOCIATED WITH CYTOKINE OVERPRODUCTION USING SAME” (NATIONAL UNIVERSITY CORPORATION KAGAWA UNIVERSITY, priority 2021, published 2024).
# Tests used:
# Type in all cases: cell-based, C57BL/6N mice
# [1] = test system: plasmacytoid dendritic cells (pDC); assay: Cytokine production by plasmacytoid dendritic cells (spleen or bone marrow) after TLR7/TLR9 ligand stimulation, ELISA of culture supernatant; conditions: for IFN-α production accompanying stimulation of pDCs / IL-12 production accompanying stimulation of pDCs: stimulation with TLR7 ligand poly(U) or TLR9 ligand CpG DNA (D19 and 1668), sugar 0.2 w/v % in glucose-free medium
# Procedure: CD317-positive cells were prepared by magnetic bead sorting (MACS) from spleen cells obtained from C57BL/6N mice (Clea Japan, Inc.), as plasmacytoid dendritic cells (pDC) (FIG. 1(A)). CD11c-positive cells in the CD317-negative cell fraction were then prepared using magnetic beads, as conventional dendritic cells (CDC) (FIG. 1(A)). CD317-positive cells were also prepared using magnetic beads from bone marrow cells obtained from C57BL/6N mice (Clea Japan, Inc.), as bone marrow pDCs (FIG. 1(B)).
# The obtained pDCs and cDCs were inoculated into a 96-well plate using glucose-free PRMI1640 medium with addition of 10 v/v % FCS, 100 μM 2-mercaptoethanol, 50 μg/ml streptomycin and 50 units/ml penicillin G, after which a rare sugar (D-allose, D-allulose or L-allulose) or D-glucose or D-fructose, was added to a final concentration of 0.2 w/v %.
# The pDCs were stimulated with non-stimulating medium and TLR7 ligand (polyuridylic acid at a final concentration of 2.5 μg/ml (Poly(U) (Sigma) mixed with Lipofectamine 2000 (Thermo Fisher Scientific)), 100 nM R848 (InvivoGen), or TLR9 ligand (synthetic DNA (3 μM of D19: 5′-GGtgcatcgatgcagGGGGg-3′ and 0.03 μM of 1668: 5′-[…]-3′ (where uppercase indicates phosphorothioate DNA and lowercase indicates phosphodiester DNA))), and the IFN-α in the culture supernatant after 20 to 24 hours was measured using ELISA by InvivoGen while the IL-12p40 was measured using ELISA by Biolegend.
# [2] = test system: intraperitoneal macrophages; assay: TNF-α and nitric oxide production by intraperitoneal macrophages after LPS/IFN-γ stimulation; conditions: 100 ng/ml LPS and 5 ng/ml IFN-γ; sugar in the medium; supernatant after 20 to 24 hours; data not shown
# Procedure: The obtained pDCs and cDCs were inoculated into a 96-well plate using glucose-free PRMI1640 medium with addition of 10 v/v % FCS, 100 μM 2-mercaptoethanol, 50 μg/ml streptomycin and 50 units/ml penicillin G, after which a rare sugar (D-allose, D-allulose or L-allulose) or D-glucose or D-fructose, was added to a final concentration of 0.2 w/v %. After administering 2 ml of 4 w/v % Brewer thioglycollate medium (Sigma) intraperitoneally to C57BL/6N mice, the intraperitoneal macrophages on the 3rd day were collected and used. After inoculation into the same medium as the DCs, stimulation was with 100 ng/ml of Lipopolysaccharide E. coli O111:B4 (Sigma) and 5 ng/ml of IFN-γ (Biolegend), the TNF-α in the culture supernatant after 20 to 24 hours was measured using ELISA by Biolegend and the nitric oxide was measured using a NO2/NO3 Assay Kit-C II (Colorimetric) (Griess Reagent Kit) (Dojindo Laboratories).
# [3] = test system: conventional dendritic cells (cDC); assay: Cytokine production by spleen-derived conventional dendritic cells after stimulation, ELISA of culture supernatant
# Procedure: CD317-positive cells were prepared by magnetic bead sorting (MACS) from spleen cells obtained from C57BL/6N mice (Clea Japan, Inc.), as plasmacytoid dendritic cells (pDC) (FIG. 1(A)). CD11c-positive cells in the CD317-negative cell fraction were then prepared using magnetic beads, as conventional dendritic cells (CDC) (FIG. 1(A)). CD317-positive cells were also prepared using magnetic beads from bone marrow cells obtained from C57BL/6N mice (Clea Japan, Inc.), as bone marrow pDCs (FIG. 1(B)). The obtained pDCs and cDCs were inoculated into a 96-well plate using glucose-free PRMI1640 medium with addition of 10 v/v % FCS, 100 μM 2-mercaptoethanol, 50 μg/ml streptomycin and 50 units/ml penicillin G, after which a rare sugar (D-allose, D-allulose or L-allulose) or D-glucose or D-fructose, was added to a final concentration of 0.2 w/v %. The cDCs were stimulated with non-stimulating medium, 100 nM of R848 and 1 μM of 1668, and the IL-12p40 in the culture supernatant after 20 to 24 hours was measured using ELISA by Biolegend.
# [4] = supernatant after 20 to 24 hours
# [5] = supernatant after 20 to 24 hours, IL-12p40 ELISA
Compound,"IFN-α production accompanying stimulation of pDCs [1, 4]","IL-12 production accompanying stimulation of pDCs [1, 5]",TNF-α production by macrophages upon lipopolysaccharide (LPS) stimulation [2],nitric oxide production by macrophages upon lipopolysaccharide (LPS) stimulation [2],"IFN-α production by pDCs after low molecular weight TLR7 ligand stimulation ([1]; low molecular weight TLR7 ligands including R848 (100 nM), sugar 0.2 w/v %, supernatant after 20 to 24 hours)","IL-12 production by pDCs after low molecular weight TLR7 ligand stimulation ([1]; low molecular weight TLR7 ligands including R848 (100 nM), sugar 0.2 w/v %, supernatant after 20 to 24 hours, IL-12p40 ELISA)",pDC cytokine production after activation in medium containing D-allose ([1]; summary statement),"IL-12 production by cDCs after CpG DNA (1668) stimulation ([3]; 1 μM 1668, sugar 0.2 w/v %, supernatant after 20 to 24 hours, IL-12p40 ELISA)",cDC cytokine production after activation in medium containing D-allose ([3]; summary statement)
O=C(CO)[C@@H](O)[C@@H](O)[C@@H](O)CO [L-allulose],not observed,not observed,not attenuated,not attenuated,,,,,
O=C(CO)[C@H](O)[C@H](O)[C@H](O)CO [D-allulose],not observed,not observed,not attenuated,not attenuated,,,,,
O=C[C@H](O)[C@H](O)[C@H](O)[C@H](O)CO [D-allose],notably attenuated,notably attenuated,not attenuated,not attenuated,not reduced,not reduced,lowered,not lowered,not lowered
O=C(CO)[C@@H](O)[C@H](O)[C@H](O)CO [D-fructose],not observed,not observed,not attenuated,not attenuated,,,,,
O=C[C@H](O)[C@@H](O)[C@H](O)[C@H](O)CO [D-glucose],not observed,not observed,,,,,,,
